Assay results from ChEMBL document CHEMBL5649169 (ChemMedChem, 2018).

Key:
[1] = biological target: Conserved oligomeric Golgi complex subunit 5 (Homo sapiens) (UniProt Q9UP83)
[2] = biological target: Nucleolar RNA helicase 2 (Homo sapiens) (UniProt Q9NR30)
[3] = biological target: Eukaryotic translation initiation factor 2-alpha kinase 1 (Homo sapiens) (UniProt Q9BQI3)
[4] = biological target: Peptidyl-prolyl cis-trans isomerase FKBP3 (Homo sapiens) (UniProt Q00688)
[5] = biological target: H/ACA ribonucleoprotein complex subunit 1 (Homo sapiens) (UniProt Q9NY12)
[6] = species: Homo sapiens
[7] = biological target: Small ribosomal subunit protein eS1 (Homo sapiens) (UniProt P61247)
[8] = biological target: Stearoyl-CoA desaturase (Homo sapiens) (UniProt O00767)
[9] = biological target: Solute carrier family 2, facilitated glucose transporter member 1 (Homo sapiens) (UniProt P11166)
[10] = biological target: Non-selective voltage-gated ion channel VDAC2 (Homo sapiens) (UniProt P45880)
[11] = biological target: Lipid scramblase CLPTM1L (Homo sapiens) (UniProt Q96KA5)
[12] = biological target: Rootletin (Homo sapiens) (UniProt Q5TZA2)
[13] = biological target: Centrosome and spindle pole-associated protein 1 (Homo sapiens) (UniProt Q1MSJ5)
[14] = biological target: Cullin-5 (Homo sapiens) (UniProt Q93034)
[15] = biological target: Glutathione S-transferase kappa 1 (Homo sapiens) (UniProt Q9Y2Q3)
[16] = biological target: HLA class I histocompatibility antigen, B alpha chain (Homo sapiens) (UniProt P01889)
[17] = biological target: Heterogeneous nuclear ribonucleoprotein D-like (Homo sapiens) (UniProt O14979)
[18] = biological target: Kinesin-like protein KIF2C (Homo sapiens) (UniProt Q99661)
[19] = biological target: Serine/threonine-protein kinase LMTK2 (Homo sapiens) (UniProt Q8IWU2)
[20] = biological target: Small ribosomal subunit protein mS34 (Homo sapiens) (UniProt P82930)
[21] = biological target: ATP synthase F(0) complex subunit 8 (Homo sapiens) (UniProt P03928)
[22] = biological target: Nucleolar MIF4G domain-containing protein 1 (Homo sapiens) (UniProt Q5C9Z4)
[23] = biological target: PAS domain-containing serine/threonine-protein kinase (Homo sapiens) (UniProt Q96RG2)
[24] = biological target: Phosphorylated adapter RNA export protein (Homo sapiens) (UniProt Q9H814)
[25] = biological target: PHD finger protein 6 (Homo sapiens) (UniProt Q8IWS0)
[26] = biological target: Retinoblastoma-binding protein 5 (Homo sapiens) (UniProt Q15291)
[27] = species: Homo sapiens; remark: listed apart in the source
[28] = biological target: 45 kDa calcium-binding protein (Homo sapiens) (UniProt Q9BRK5)
[29] = species: Homo sapiens; remark: listed apart in the source
[30] = biological target: SWI/SNF-related matrix-associated actin-dependent regulator of chromatin subfamily A member 1 (Homo sapiens) (UniProt P28370)
[31] = biological target: SPATS2-like protein (Homo sapiens) (UniProt Q9NUQ6)
[32] = biological target: Transducin beta-like protein 3 (Homo sapiens) (UniProt Q12788)
[33] = biological target: Dual specificity testis-specific protein kinase 1 (Homo sapiens) (UniProt Q15569)
[34] = biological target: Mitochondrial import inner membrane translocase subunit Tim10 (Homo sapiens) (UniProt P62072)
[35] = species: Homo sapiens; remark: listed apart in the source
[36] = biological target: Ribosome biogenesis protein WDR12 (Homo sapiens) (UniProt Q9GZL7)
[37] = biological target: Hydroxyacyl-coenzyme A dehydrogenase, mitochondrial (Homo sapiens) (UniProt Q16836)
[38] = biological target: ATP synthase peripheral stalk subunit OSCP, mitochondrial (Homo sapiens) (UniProt P48047)
[39] = biological target: Histone-arginine methyltransferase CARM1 (Homo sapiens) (UniProt Q86X55)
[40] = biological target: 10 kDa heat shock protein, mitochondrial (Homo sapiens) (UniProt P61604)
[41] = biological target: Importin-7 (Homo sapiens) (UniProt O95373)
[42] = biological target: ER lumen protein-retaining receptor 1 (Homo sapiens) (UniProt P24390)
[43] = biological target: DNA replication licensing factor MCM3 (Homo sapiens) (UniProt P25205)
[44] = biological target: Dynamin-like GTPase OPA1, mitochondrial (Homo sapiens) (UniProt O60313)
[45] = biological target: Protein PRRC2C (Homo sapiens) (UniProt Q9Y520)
[46] = biological target: Translin (Homo sapiens) (UniProt Q15631)
[47] = biological target: Elongation factor Tu, mitochondrial (Homo sapiens) (UniProt P49411)
Further: assay method not described here.

Sequence of Transducin beta-like protein 3 (Homo sapiens) (Q12788 whole entry): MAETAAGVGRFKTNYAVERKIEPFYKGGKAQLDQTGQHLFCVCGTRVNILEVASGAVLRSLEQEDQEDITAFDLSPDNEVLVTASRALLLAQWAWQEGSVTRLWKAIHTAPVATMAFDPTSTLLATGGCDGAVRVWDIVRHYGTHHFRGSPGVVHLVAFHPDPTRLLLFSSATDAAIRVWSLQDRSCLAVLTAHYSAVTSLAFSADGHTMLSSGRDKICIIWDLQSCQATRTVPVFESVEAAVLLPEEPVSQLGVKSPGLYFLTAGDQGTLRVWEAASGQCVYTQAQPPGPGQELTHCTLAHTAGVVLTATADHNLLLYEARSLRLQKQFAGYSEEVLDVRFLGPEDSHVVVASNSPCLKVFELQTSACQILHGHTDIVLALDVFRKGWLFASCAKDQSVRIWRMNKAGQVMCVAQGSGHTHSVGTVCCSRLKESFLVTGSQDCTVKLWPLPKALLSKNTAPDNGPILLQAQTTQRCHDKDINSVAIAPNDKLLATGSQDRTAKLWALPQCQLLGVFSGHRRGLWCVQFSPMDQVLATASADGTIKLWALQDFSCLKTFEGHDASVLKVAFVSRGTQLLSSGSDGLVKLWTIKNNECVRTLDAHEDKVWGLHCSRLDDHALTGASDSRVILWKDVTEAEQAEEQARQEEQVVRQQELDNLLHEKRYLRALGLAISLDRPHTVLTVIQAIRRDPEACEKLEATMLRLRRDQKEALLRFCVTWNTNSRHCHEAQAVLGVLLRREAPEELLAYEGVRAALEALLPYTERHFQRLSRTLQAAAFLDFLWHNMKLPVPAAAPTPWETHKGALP
Sequence of Cullin-5 (Homo sapiens) (Q93034 whole entry): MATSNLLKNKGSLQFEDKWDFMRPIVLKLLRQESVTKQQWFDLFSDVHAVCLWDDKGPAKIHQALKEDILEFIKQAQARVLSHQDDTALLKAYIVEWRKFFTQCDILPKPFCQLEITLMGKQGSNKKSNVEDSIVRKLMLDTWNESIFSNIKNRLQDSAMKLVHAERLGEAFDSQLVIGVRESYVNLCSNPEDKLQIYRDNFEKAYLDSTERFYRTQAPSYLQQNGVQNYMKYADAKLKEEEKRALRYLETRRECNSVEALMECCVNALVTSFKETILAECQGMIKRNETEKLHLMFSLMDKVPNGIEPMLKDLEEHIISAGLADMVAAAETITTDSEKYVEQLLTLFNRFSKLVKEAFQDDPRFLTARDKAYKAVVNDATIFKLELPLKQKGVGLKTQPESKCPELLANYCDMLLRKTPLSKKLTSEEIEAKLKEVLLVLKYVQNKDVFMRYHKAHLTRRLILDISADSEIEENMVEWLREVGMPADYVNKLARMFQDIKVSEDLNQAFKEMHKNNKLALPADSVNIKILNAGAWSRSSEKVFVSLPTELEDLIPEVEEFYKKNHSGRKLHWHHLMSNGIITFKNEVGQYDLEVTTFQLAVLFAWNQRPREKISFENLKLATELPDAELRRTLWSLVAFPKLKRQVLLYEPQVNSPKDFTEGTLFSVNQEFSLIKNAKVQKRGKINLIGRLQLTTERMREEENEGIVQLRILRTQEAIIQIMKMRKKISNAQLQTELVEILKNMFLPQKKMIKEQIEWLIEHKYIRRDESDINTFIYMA
Sequence of Protein PRRC2C (Homo sapiens) (Q9Y520 whole entry): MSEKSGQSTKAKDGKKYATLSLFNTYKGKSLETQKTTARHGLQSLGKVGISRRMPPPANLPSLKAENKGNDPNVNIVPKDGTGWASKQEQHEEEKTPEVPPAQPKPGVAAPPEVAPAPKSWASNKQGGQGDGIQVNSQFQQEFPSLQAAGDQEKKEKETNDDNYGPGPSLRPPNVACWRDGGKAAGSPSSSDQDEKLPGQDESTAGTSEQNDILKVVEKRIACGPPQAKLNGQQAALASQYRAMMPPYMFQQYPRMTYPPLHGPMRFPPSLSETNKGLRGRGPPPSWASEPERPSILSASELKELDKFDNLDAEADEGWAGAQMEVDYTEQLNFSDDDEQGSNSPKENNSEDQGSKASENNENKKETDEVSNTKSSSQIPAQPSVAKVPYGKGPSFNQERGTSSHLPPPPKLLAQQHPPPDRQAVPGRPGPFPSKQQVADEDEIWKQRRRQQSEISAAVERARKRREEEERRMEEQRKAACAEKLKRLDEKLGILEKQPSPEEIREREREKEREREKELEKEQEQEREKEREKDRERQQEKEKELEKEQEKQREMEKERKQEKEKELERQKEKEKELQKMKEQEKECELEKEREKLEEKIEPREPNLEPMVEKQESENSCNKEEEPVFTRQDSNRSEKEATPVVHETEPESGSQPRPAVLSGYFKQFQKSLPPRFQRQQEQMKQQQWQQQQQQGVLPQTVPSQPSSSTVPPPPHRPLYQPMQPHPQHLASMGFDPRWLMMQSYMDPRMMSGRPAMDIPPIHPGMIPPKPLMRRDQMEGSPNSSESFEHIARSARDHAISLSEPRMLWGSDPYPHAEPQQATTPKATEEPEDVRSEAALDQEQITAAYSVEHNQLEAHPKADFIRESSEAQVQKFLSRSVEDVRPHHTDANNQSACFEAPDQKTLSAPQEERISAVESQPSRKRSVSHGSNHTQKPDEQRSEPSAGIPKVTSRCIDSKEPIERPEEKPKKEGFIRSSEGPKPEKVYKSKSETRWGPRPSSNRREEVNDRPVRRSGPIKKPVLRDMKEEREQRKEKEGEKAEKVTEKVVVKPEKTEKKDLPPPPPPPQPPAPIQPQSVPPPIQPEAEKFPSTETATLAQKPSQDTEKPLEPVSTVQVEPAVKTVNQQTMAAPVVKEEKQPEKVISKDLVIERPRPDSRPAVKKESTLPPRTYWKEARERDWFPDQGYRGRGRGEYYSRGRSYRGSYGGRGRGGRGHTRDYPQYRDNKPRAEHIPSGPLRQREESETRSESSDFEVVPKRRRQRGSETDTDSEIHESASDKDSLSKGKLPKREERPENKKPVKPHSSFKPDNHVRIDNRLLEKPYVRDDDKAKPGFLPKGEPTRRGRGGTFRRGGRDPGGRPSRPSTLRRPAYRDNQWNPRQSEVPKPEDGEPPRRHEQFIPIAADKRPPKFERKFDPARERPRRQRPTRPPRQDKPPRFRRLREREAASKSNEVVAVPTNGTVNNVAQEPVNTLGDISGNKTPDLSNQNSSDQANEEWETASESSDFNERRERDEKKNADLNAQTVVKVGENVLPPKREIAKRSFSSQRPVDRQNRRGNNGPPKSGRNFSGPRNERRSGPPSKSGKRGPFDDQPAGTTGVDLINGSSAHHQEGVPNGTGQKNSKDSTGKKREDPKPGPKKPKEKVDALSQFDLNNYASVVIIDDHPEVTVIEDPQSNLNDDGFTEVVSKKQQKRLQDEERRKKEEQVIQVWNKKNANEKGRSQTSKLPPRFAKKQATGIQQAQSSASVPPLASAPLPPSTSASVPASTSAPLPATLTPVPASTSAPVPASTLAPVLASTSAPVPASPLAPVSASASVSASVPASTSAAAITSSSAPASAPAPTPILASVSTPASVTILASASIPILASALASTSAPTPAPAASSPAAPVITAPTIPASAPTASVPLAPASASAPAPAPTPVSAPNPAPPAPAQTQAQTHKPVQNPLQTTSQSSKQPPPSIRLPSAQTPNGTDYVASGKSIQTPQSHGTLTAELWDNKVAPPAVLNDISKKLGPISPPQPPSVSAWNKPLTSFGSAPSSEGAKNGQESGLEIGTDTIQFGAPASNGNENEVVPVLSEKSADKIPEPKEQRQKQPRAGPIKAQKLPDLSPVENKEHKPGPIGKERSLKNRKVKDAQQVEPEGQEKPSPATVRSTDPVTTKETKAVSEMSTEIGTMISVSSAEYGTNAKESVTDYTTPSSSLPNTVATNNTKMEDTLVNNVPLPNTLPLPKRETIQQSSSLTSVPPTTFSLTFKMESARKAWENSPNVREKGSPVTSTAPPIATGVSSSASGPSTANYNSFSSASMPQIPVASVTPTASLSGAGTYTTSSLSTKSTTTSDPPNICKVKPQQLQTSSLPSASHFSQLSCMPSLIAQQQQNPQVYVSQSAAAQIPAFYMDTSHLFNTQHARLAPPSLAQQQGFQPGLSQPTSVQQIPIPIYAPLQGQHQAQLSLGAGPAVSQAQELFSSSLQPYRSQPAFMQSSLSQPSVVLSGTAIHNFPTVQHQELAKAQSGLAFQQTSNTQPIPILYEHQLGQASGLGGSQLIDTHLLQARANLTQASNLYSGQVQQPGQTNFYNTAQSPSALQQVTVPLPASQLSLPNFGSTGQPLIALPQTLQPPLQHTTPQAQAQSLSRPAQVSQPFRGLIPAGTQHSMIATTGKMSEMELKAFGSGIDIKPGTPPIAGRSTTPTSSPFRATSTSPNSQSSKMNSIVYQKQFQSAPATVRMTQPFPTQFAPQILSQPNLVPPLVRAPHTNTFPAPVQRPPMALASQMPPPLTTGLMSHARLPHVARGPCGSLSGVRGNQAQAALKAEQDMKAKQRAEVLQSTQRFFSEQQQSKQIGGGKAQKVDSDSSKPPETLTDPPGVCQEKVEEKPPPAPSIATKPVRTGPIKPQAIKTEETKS
Sequence of Glutathione S-transferase kappa 1 (Homo sapiens) (Q9Y2Q3 whole entry): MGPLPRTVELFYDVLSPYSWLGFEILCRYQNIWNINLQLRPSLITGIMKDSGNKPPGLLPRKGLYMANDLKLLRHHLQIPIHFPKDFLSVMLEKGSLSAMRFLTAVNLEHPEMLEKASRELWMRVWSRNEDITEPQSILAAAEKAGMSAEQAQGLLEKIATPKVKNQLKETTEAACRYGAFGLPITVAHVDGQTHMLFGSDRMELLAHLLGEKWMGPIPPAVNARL
Sequence of ER lumen protein-retaining receptor 1 (Homo sapiens) (P24390 whole entry): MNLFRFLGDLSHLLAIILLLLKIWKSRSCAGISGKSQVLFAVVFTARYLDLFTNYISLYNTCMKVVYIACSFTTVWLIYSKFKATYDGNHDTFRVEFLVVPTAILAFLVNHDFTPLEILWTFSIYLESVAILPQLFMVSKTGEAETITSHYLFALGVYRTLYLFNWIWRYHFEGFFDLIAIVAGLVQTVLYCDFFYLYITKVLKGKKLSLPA
Sequence of ATP synthase F(0) complex subunit 8 (Homo sapiens) (P03928 whole entry, the tested form may be a part, one chain of several): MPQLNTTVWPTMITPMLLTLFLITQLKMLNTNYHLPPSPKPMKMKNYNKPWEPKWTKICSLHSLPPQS

Cc1ccc(C(=O)Nc2cccc(C(F)(F)F)c2)cc1Nc1nc(-c2cccnc2)nc2c1cnn2C
ED50 [1]: 7290 nM
ED50 [2]: 384 nM
ED50 [3]: 25600 nM
ED50 [4]: 12000 nM
ED50 [5]: 181 nM
ED50 [6]: 3870 nM
ED50 [7]: 2450 nM
ED50 [8]: 4.65 nM
ED50 [9]: 1850 nM
ED50 [10]: 3150 nM
ED50 [11]: 8.16 nM
ED50 [12]: 115 nM
ED50 [13]: 1410 nM
ED50 [14]: 676 nM
ED50 [15]: 6960 nM
ED50 [16]: 9.82 nM
ED50 [17]: 68.5 nM
ED50 [18]: 20 nM
ED50 [19]: 2390 nM
ED50 [20]: 27.9 nM
ED50 [21]: 45600 nM
ED50 [22]: 3.22 nM
ED50 [23]: 14700 nM
ED50 [24]: 3510 nM
ED50 [25]: 2010 nM
ED50 [26]: 21200 nM
ED50 [27]: 723 nM
ED50 [28]: 519 nM
ED50 [29]: 5360 nM
ED50 [30]: 14.1 nM
ED50 [31]: 41.5 nM
ED50 [32]: 4700 nM
ED50 [33]: 0.117 nM
ED50 [34]: 27.9 nM
ED50 [35]: 5280 nM
ED50 [36]: 1.21 nM
ED50 [37]: 6.25 nM

Cc1ccc(C(=O)Nc2cccc(C(F)(F)F)c2)cc1Nc1nc(-c2cccnc2)nc2nn(C)cc12
ED50 [38]: 20.6 nM
ED50 [39]: 113 nM
ED50 [40]: 76.5 nM
ED50 [41]: 18.1 nM
ED50 [42]: 0.253 nM
ED50 [43]: 28.9 nM
ED50 [44]: 72.9 nM
ED50 [45]: 2520 nM
ED50 [46]: 1.01 nM
ED50 [47]: 32700 nM
